Reference: patent publication US12186283B2, “Bismuth-thiol compositions and methods of use” (Microbion Corporation, priority 2018, dated 2025)

Key:
N. gonorrhoeae = N. gonorrhoeae MMX 683 (ATCC 49226); cited from earlier work
Bacteroides fragilis = conditions: B. fragilis MMX 123 (ATCC 25285); cited from earlier work
Clostridium difficile = conditions: C. difficile MMX 4381 (ATCC 700057), CC^I; cited from earlier work
Klebsiella pneumoniae = experiment: Broth microdilution MIC (Example 11); format: cell-based
Escherichia coli [1] = experiment: Broth microdilution MIC (Example 11); format: cell-based
Pseudomonas aeruginosa [2] = experiment: Broth microdilution MIC (Example 11); format: cell-based
Acinetobacter baumannii = experiment: Broth microdilution MIC (Example 11); format: cell-based
[3] = test system: Staphylococcus aureus (MRSA); experiment: Broth microdilution MIC (Example 11); format: cell-based
Escherichia coli [4] = conditions: E. coli MMX 102 (ATCC 25922); cited from earlier work
[5] = test system: Staphylococcus aureus (MRSA); conditions: S. aureus MMX 101 (ATCC 29213); cited from earlier work
[6] = test system: Enterococcus spp. (E. faecalis, E. faecium); experiment: Broth microdilution MIC (Example 11); format: cell-based; conditions: VRE, LevR, CipR, EryR
Enterobacter cloacae = experiment: Broth microdilution MIC (Example 11); format: cell-based; conditions: E. cloacae MMX 5981 (ATCC BAA-2468); NDM-1, LevR, MEMR, CAZR, GmR
Pseudomonas aeruginosa [7] = conditions: P. aeruginosa MMX 103 (ATCC 27853); cited from earlier work

Molecule: CO/N=C(\C(=O)N[C@@H]1C(=O)N2C(C(=O)O)=C(CSc3nc(=O)c(=O)[nH]n3C)CS[C@H]12)c1csc(N)n1 [Ceftriaxone]
- MIC, CLSI QC range (N. gonorrhoeae): (0.004-0.015) μg/mL

Molecule: Cc1ncc([N+](=O)[O-])n1CCO [Metronidazole]
- MIC, CLSI QC range (Bacteroides fragilis): (0.25-1) pg/mL
- MIC, CLSI QC range (Clostridium difficile): (0.12-0.5) pg/mL

Molecule: Gentamicin
- MIC (Klebsiella pneumoniae; K. pneumoniae MMX 4622, KPC-2, MEMR, CAZR): 0.25 µg/mL
- MIC (Klebsiella pneumoniae; K. pneumoniae MMX 4623, KPC-2, MEMR, CAZR, GMR): 64 µg/mL
- MIC (Klebsiella pneumoniae; K. pneumoniae MMX 4653, KPC-3, LevR, MEMR, CAZR): 1 µg/mL
- MIC (Klebsiella pneumoniae; K. pneumoniae MMX 4683, KPC-2, LevR, MEMR, CAZR): 1 µg/mL
- MIC (Klebsiella pneumoniae; K. pneumoniae MMX 4684, ESBL, MEMR): 0.25 µg/mL
- MIC (Klebsiella pneumoniae; K. pneumoniae MMX 4685, ESBL, LevR, MEMR, CAZR): 1 µg/mL
- MIC (Klebsiella pneumoniae; K. pneumoniae MMX 4694, KPC-3, LevR, MEMR, CAZR): 8 µg/mL
- MIC (Klebsiella pneumoniae; K. pneumoniae MMX 5979, NDM-1, LevR, MEMR, CAZR, GmR): >64 µg/mL
- MIC (Escherichia coli [1]; E. coli MMX 102 (ATCC 25922), QC): 1 µg/mL
- MIC (Escherichia coli [1]; E. coli MMX 5980 (ATCC BAA-2469), NDM-1, LevR, MEMR, CAZR, GmR): >64 µg/mL
- MIC (Escherichia coli [1]; E. coli MMX 8423, ESBL, LevR, CAZR, GmR): 64 µg/mL
- MIC (Escherichia coli [1]; E. coli MMX 8424, ESBL, CAZR): 0.25 µg/mL
- MIC (Escherichia coli [1]; E. coli MMX 8425, ESBL, LevR, CAZR, GmR): >64 µg/mL
- MIC (Pseudomonas aeruginosa [2]; P. aeruginosa MMX 103 (ATCC 27853), QC): 1 µg/mL
- MIC (Pseudomonas aeruginosa [2]; P. aeruginosa MMX 1381, MDR, LevR, CipR, MEMR, CAZR): 8 µg/mL
- MIC (Pseudomonas aeruginosa [2]; P. aeruginosa MMX 2562, MDR, LevR, CipR, MEMR, CAZR): 8 µg/mL
- MIC (Pseudomonas aeruginosa [2]; P. aeruginosa MMX 3991, MDR, LevR, CipR, MEMR, CAZR): 4 µg/mL
- MIC (Pseudomonas aeruginosa [2]; P. aeruginosa MMX 4654, IMP-7, LevR, CipR, MEMR, CAZR): > 64 µg/mL
- MIC (Pseudomonas aeruginosa [2]; P. aeruginosa MMX 4697, VIM-2, LevR, CipR, MEMR, CAZR): 4 µg/mL
- MIC (Acinetobacter baumannii; A. baumannii MMX 2592, MDR, LevR, CipR, MEMR, CAZR, GmR): > 64 µg/mL
- MIC (Acinetobacter baumannii; A. baumannii MMX 2593, MDR, LevR, CipR, MEMR, CAZR, GmR): > 64 µg/mL
- MIC (Acinetobacter baumannii; A. baumannii MMX 3372, MDR, CipR, MEMI, CAZI): 0.5 µg/mL
- MIC (Acinetobacter baumannii; A. baumannii MMX 3373, Sensitive): 0.12 µg/mL
- MIC (Acinetobacter baumannii; A. baumannii MMX 4651 (NCTC 13304), MDR, OXA-27, LevR, CipR, MEMR, CAZR, GmI): 8 µg/mL
- MIC ([3]; S. aureus MMX 101 (ATCC 29213), QC, MSSA): 0.12 µg/mL
- MIC ([3]; S. aureus MMX 5373, MRSA, LevR, CipR, CCR, EryR, OxR): 0.25 µg/mL
- MIC ([3]; S. aureus MMX 6311, MRSA, LevR, CipR, CCR, EryR, OxR): 0.25 µg/mL
- MIC ([3]; S. aureus MMX 9203, MRSA, LevR, CipR, EryR, OxR): 0.12 µg/mL
- MIC ([3]; S. aureus MMX 9204, MRSA, LevR, CipR, EryR, OxR): 0.25 µg/mL
- MIC ([3]; S. aureus MMX 9205, MRSA, LevR, CipR, CCR, EryR, OxR): 0.25 µg/mL
- CLSI QC range (MIC) (Escherichia coli [4]): (0.25-1) μg/mL
- CLSI QC range (MIC) [5]: (0.12-1) μg/mL
- MIC ([6]; E. faecalis MMX 8960): >64 µg/mL
- MIC ([6]; E. faecalis MMX 8961): 8 µg/mL
- MIC ([6]; E. faecalis MMX 8962): >64 µg/mL
- MIC ([6]; E. faecium MMX 485, vanA): >64 µg/mL
- MIC ([6]; E. faecium MMX 752, vanA): >64 µg/mL
- MIC (Enterobacter cloacae): >64 µg/mL
- CLSI QC range (MIC) (Pseudomonas aeruginosa [7]): (0.5-2)
